{"source": "patent US11278550B2", "about": "“Compositions and methods for the treatment of Prader-Willi syndrome” (Duke University, priority 2016, dated 2022)", "key": {"[1]": {"test_system": "m+/pΔS-U mice", "assay": "RNA and protein expression in PWS mouse tissues", "assay_type": "in vivo", "method": "(§1) For testing long lasting drug effects, the 6 week-old m^S-EGFP/p^+ mice were treated daily by i.p. injection for seven consecutive days.\nWestern blot analysis was performed as previously described by Wang, et al., Molecular Autism 5, 30 (2014). Briefly, total protein was extracted from collected tissues (liver and brain) using modified RIPA buffer (1× PBS, 1% Triton X-100, 0.1% SDS, 2 mM EDTA, and protease inhibitors). SDS-PAGE resolved 25 μg of total proteins and they were transferred to polyvinylidene difluoride (PVDF) membranes. The PVDF membranes were blocked with BLOTTO (5% skim milk and 0.1% Tween-20 in 1× TBS buffer), and incubated with primary target antibodies, rabbit anti-Snrpn (Protein Tech, cat. no. 11070-1-AP) at 1:400, and rabbit anti-Ube3a (Bethyl Lab, cat. no. A300-352A-T) at 1:1,000 working concentration in BLOTTO at 4° C. overnight. The next day, following incubation with horseradish peroxidase-conjugated secondary antibodies, the membranes were incubated with a Pierce chemiluminescent substrate and exposed to X-ray film or imaged by AI600 (GE Healthcare Life Science).\n(§2) For reverse-transcription PCR (RT-PCR) and quantitative real time RT-PCR (qRT-PCR), first total RNA was extracted from the fibroblasts and/or collected tissues (liver and brain) using Direct-zol RNA Miniprep kit (Zymo Research cat. no. R2070). 2 μg of total RNA was directly used for single strand cDNA synthesis with Superscript III reverse transcriptase (Invitrogen cat. no. 18080-093) according to the manufacturer's protocols. The conditions for RT-PCR were 95° C./5 min, 35-40 cycles of 95° C./30 sec, 56-60° C./60 sec, 72° C./60 sec. Quantification of target gene expression was performed in a LightCycler480 instrument (Roche) using SsoAdvanced Universal SYBR green Supermix (Biorad cat. no. 172-5271) according to the manufacturer's instructions. See Table 4 for primer sequences and conditions used for experiments for RT-PCR, qRT-PCR, bisulfite genomic sequencing, ChIP-qPCR, and chromatin accessibility assay."}, "[2]": {"test_system": "PWS-IC", "assay": "Bisulfite genomic sequencing of PWS-IC, liver of PWS mice", "assay_type": "in vivo", "details": "livers from PWS mouse models", "method": "Genomic DNA was isolated from human PWS fibroblasts or mouse tissues. DNA (1 μg) was then treated by bisulfite using the Epi-Tect bisulfite kit (Qiagen), and 125 ng input DNA was used per PCR amplification. PCR products were sub-cloned into pGEM-T easy vector (Promega) and an average of 15 clones were sequenced. DNA sequencing results were analyzed using BISMA web-based analysis platform with a setting for individual clones with <95% bisulfite conversion and <90% sequence identity to be excluded in the analysis."}, "[3]": {"test_system": "H3K9me2", "details": "cited from earlier work"}, "[4]": {"test_system": "human PWS fibroblasts", "assay": "RT-PCR of 15q11-q13 genes in human PWS fibroblasts", "assay_type": "cell-based", "details": "for SNORD116 and its putative host transcript (116HG): 4 μM, 72 hours", "method": "as §1, §2\nFIG. 4a represents a schematic of genomic organization at the human chromosome 15q11-q13 region imprinting center. Because imprinting of SNPRN is known to be ubiquitous, the G9a-inhibitor effect on its activation is expected to be representative of all tissues and cell types."}, "[5]": {"test_system": "maternal Snrpn-EGFP MEFs", "assay": "High content screening / concentration response of Snrpn-EGFP unsilencing", "assay_type": "cell-based, mouse", "details": "for EC50: read-out: half-maximal effective concentration (EC50), Snrpn-EGFP unsilencing; for activation of S-EGFP: mS-EGFP/p+ MEFs", "method": "High content screenings of small molecules were performed as described in Huang, et al. Nature 481, 185-189 (2012). HCS comprises a 384-well high-content screen using primary mouse embryonic fibroblasts (MEFs) from m^S-EGFP/p^+, and searched for drug-like molecules that could unsilence the maternal S-EFGP allele. […] To perform the screen, primary MEFs were isolated from E12.5-14.5 embryos of m^S-EGFP/p^+ and cultured for 7 days in Dulbecco's modified Eagle's media supplemented with 10% fetal bovine serum, 100 Units/mL penicillin and 100 μg/mL streptomycin, at 37° C. and 5% CO2. One day before treatment with small molecules, 5,000 cells per well were plated onto 384-well plates. The cells were then treated with compounds (10 μM for 72 hours) from multiple small molecule libraries (FIG. 1f and FIG. 2). In total, 9,157 small molecules were screened in quadruplicate, normalizing values to vehicle-treatment (0.2% DMSO) (Table 1). The unsilencing of Snrpn-EGFP was determined three days after drug treatment. The immunofluorescence-processed fibroblasts were imaged for Hoechst and Alexa Fluor 488 fluorescence using a BD Pathway 855 high content imaging microscope. Antibody-enhanced Snrpn-EGPF fluorescence intensity was determined in drug-treated cells individually and normalized to cells treated with vehicle control. In order to identify potentially active compounds, an arbitrary cutoff of 125% was used where 100% indicates basal fluorescence in the vehicle-treated MEFs. Analysis was performed using Cell Profiler with custom macro and algorithms. Potential active drugs were defined as the increase in drug-mediated EGFP fluorescence consistently observed across quadruplicate wells and minimal or no cytotoxicity measured by Hoechst-stained nuclear structure (and the changes in total number of cells). After initial validation of all potential active drugs (e.g., to determine whether active compounds show inherent fluorescence, the wild-type fibroblasts were also treated), only effective hit compounds further validated in dose-response tests to determine relative efficacy (Emax) and potency (EC50). The dose-response results were analyzed by using Graphpad Prism (Graphpad Software). The calculated EC50 values (potencies) and estimated Emax (efficacy, Y-value top plateau) enabled comparative analyses of the relative potency and efficacy of the identified compounds.\nThree days after drug treatment, the cells were fixed at 4% paraformaldehyde at room temperature for 10 min, followed by rinsing with 1× PBS. The cells were permeabilized with 0.5% Triton X-100 in 1× PBS at room temperature for 10 min, followed by blocking with 5% normal goat serum in 0.1% Triton X-100 in 1× PBS at room temperature for 30 minutes. Primary rabbit anti-GFP antibody (1:1000, Novus Biologicals cat. no. NB100-1770) was incubated at 4° C. overnight. The next day, the cells were rinsed with 1× PBS and incubated with goat anti-rabbit Alexa Fluor 488 (Invitrogen cat. no. A-11008) and Hoechst at room temperature. One hour after incubation, the cells were rinsed with 1× PBS and imaged for Hoechst and Alexa Fluor 488 fluorescence using a BD Pathway 855 high content imaging microscope.\nIt is not feasible to design a screen for noncoding RNA. Alternatively, SNRPN/Snprn is paternally expressed but maternally silenced in all human and mouse tissues. The allele-specific expression of human SNRPN is regulated by the PWS-IC, which also controls the expression of host transcripts for SnoRNAs, including the SNORD116 cluster between SNRPN and UBE3A. see Le Meur, E. et al., Dev. Biol. 286, 587-600 (2005). Thus, the Snrpn-EGFP fusion protein (hereafter S-EGFP) was used as a marker for high content screening (HCS). It was determined that small molecules that can unsilence S-EGFP would also be effective in reactivating the host transcript of SNORD116. […]"}}, "note": "Entries after “also recorded” stand apart in the source; their conditions may differ. Where two headings read alike, the source gives them in different places.", "data": [{"smiles": "COc1cc2c(NC3CCN(C(C)C)CC3)nc(N3CCC(F)(F)CC3)nc2cc1OCCCN1CCCC1", "note": "[UNC0642]", "values": [{"measurement": "level of Ube3a-AS RNA", "setting": "[1]; brain", "value": "not affected"}, {"measurement": "expression of Snrpn and Snord116", "setting": "[1]; brain and liver, around P14, RT-PCR and qRT-PCR", "value": "readily detectable"}, {"measurement": "Ube3a protein level", "setting": "[1]; whole brain and cerebellum", "value": "not changed; also recorded: not affected"}, {"measurement": "DNA methylation of the PWS-IC", "setting": "[2]", "value": "did not significantly alter"}, {"measurement": "potency for H3K9me2 mark", "setting": "[3]; several cell lines", "value": "high potency"}, {"measurement": "SNORD116 and its putative host transcript (116HG)", "setting": "[4]", "value": "effective"}, {"measurement": "EC50", "setting": "[5]; Mus musculus, 72 h", "value": 2.7, "unit": "µM"}, {"measurement": "activation of S-EGFP", "setting": "[5]", "value": "active"}]}, {"smiles": "COc1cc2c(NC3CCN(C(C)C)CC3)nc(C3CCCCC3)nc2cc1OCCCN1CCCC1", "note": "[UNC0638]", "values": [{"measurement": "reduction of the levels of H3K9me2", "setting": "[3]; 250 nM, variety of cell lines", "value": "60-80%"}, {"measurement": "SNORD116 and its putative host transcript (116HG)", "setting": "[4]", "value": "effective"}, {"measurement": "activation of SNRPN and SNORD116 transcripts", "setting": "[4]; 1-4 μM", "value": "effectively activated"}, {"measurement": "activation of S-EGFP", "setting": "[5]", "value": "active"}, {"measurement": "EC50", "setting": "[5]; maternal Snrpn-EGFP MEFs, 72 hours", "value": 1.6, "unit": "µM"}]}]}
